Measurements taken from ChEMBL document CHEMBL3861943 (Medchemcomm, 2016).

Assays:
[1] = Cytotoxicity against human HCT116 cells assessed as decrease in cell proliferation after 72 hrs by MTT reduction assay; assay type: functional, cell-based; conditions: HCT-116, 72 h
[2] = Cytotoxicity against human BxPC3 cells assessed as decrease in cell proliferation after 72 hrs by MTT reduction assay; assay type: functional, cell-based; conditions: BXPC-3, 72 h
[3] = Cytotoxicity against human WI38 cells assessed as decrease in cell proliferation after 72 hrs by MTT reduction assay; assay type: toxicity, cell-based, WI-38
[4] = target: Dihydroorotate dehydrogenase (quinone), mitochondrial (Homo sapiens, UniProt Q02127); assay: Inhibition of recombinant human DHODH by DCIP-based assay; assay type: single protein
HCT-116 [5] = assay: Induction of apoptosis in human HCT116 cells assessed as early apoptotic cells at 0.2 uM after 24 hrs by annexin V-FITC/propidium iodide staining-based flow cytometric method (reference value: 2.25%); assay type: functional
HCT-116 [6] = assay: Induction of apoptosis in human HCT116 cells assessed as late apoptotic cells at 0.2 uM after 24 hrs by annexin V-FITC/propidium iodide staining-based flow cytometric method (reference value: 3.84%); assay type: functional
HCT-116 [7] = assay: Induction of apoptosis in human HCT116 cells assessed as necrotic cells at 0.2 uM after 24 hrs by annexin V-FITC/propidium iodide staining-based flow cytometric method (reference value: 2.14%); assay type: functional
HCT-116 [8] = assay: Induction of apoptosis in human HCT116 cells assessed as viable cells at 0.2 uM after 24 hrs by annexin V-FITC/propidium iodide staining-based flow cytometric method (reference value: 91.8%); assay type: functional; conditions: HCT-116, 24 h, read-out: Activity
HCT-116 [9] = assay: Induction of apoptosis in human HCT116 cells assessed as early apoptotic cells at 0.2 uM after 36 hrs by annexin V-FITC/propidium iodide staining-based flow cytometric method (reference value: 2.25%); assay type: functional
HCT-116 [10] = assay: Induction of apoptosis in human HCT116 cells assessed as late apoptotic cells at 0.2 uM after 36 hrs by annexin V-FITC/propidium iodide staining-based flow cytometric method (reference value: 3.84%); assay type: functional
HCT-116 [11] = assay: Induction of apoptosis in human HCT116 cells assessed as necrotic cells at 0.2 uM after 36 hrs by annexin V-FITC/propidium iodide staining-based flow cytometric method (reference value: 2.14%); assay type: functional
HCT-116 [12] = assay: Induction of apoptosis in human HCT116 cells assessed as viable cells at 0.2 uM after 36 hrs by annexin V-FITC/propidium iodide staining-based flow cytometric method (reference value: 91.8%); assay type: functional; conditions: HCT-116, 36 h, read-out: Activity
HCT-116 [13] = assay: Induction of apoptosis in human HCT116 cells assessed as early apoptotic cells at 0.2 uM after 48 hrs by annexin V-FITC/propidium iodide staining-based flow cytometric method (reference value: 2.25%); assay type: functional
HCT-116 [14] = assay: Induction of apoptosis in human HCT116 cells assessed as late apoptotic cells at 0.2 uM after 48 hrs by annexin V-FITC/propidium iodide staining-based flow cytometric method (reference value: 3.84%); assay type: functional
HCT-116 [15] = assay: Induction of apoptosis in human HCT116 cells assessed as necrotic cells at 0.2 uM after 48 hrs by annexin V-FITC/propidium iodide staining-based flow cytometric method (reference value: 2.14%); assay type: functional
HCT-116 [16] = assay: Induction of apoptosis in human HCT116 cells assessed as viable cells at 0.2 uM after 48 hrs by annexin V-FITC/propidium iodide staining-based flow cytometric method (reference value: 91.8%); assay type: functional; conditions: HCT-116, 48 h, read-out: Activity
BXPC-3 [17] = assay: Induction of apoptosis in human BxPC3 cells assessed as early apoptotic cells at 0.2 uM after 24 hrs by annexin V-FITC/propidium iodide staining-based flow cytometric method (reference value: 0.344%); assay type: functional
BXPC-3 [18] = assay: Induction of apoptosis in human BxPC3 cells assessed as late apoptotic cells at 0.2 uM after 24 hrs by annexin V-FITC/propidium iodide staining-based flow cytometric method (reference value: 6.73%); assay type: functional
BXPC-3 [19] = assay: Induction of apoptosis in human BxPC3 cells assessed as necrotic cells at 0.2 uM after 24 hrs by annexin V-FITC/propidium iodide staining-based flow cytometric method (reference value: 1.15%); assay type: functional
BXPC-3 [20] = assay: Induction of apoptosis in human BxPC3 cells assessed as viable cells at 0.2 uM after 24 hrs by annexin V-FITC/propidium iodide staining-based flow cytometric method (reference value: 91.8%); assay type: functional; conditions: BXPC-3, 24 h, read-out: Activity
BXPC-3 [21] = assay: Induction of apoptosis in human BxPC3 cells assessed as early apoptotic cells at 0.2 uM after 36 hrs by annexin V-FITC/propidium iodide staining-based flow cytometric method (reference value: 0.344%); assay type: functional
BXPC-3 [22] = assay: Induction of apoptosis in human BxPC3 cells assessed as late apoptotic cells at 0.2 uM after 36 hrs by annexin V-FITC/propidium iodide staining-based flow cytometric method (reference value: 6.73%); assay type: functional
BXPC-3 [23] = assay: Induction of apoptosis in human BxPC3 cells assessed as necrotic cells at 0.2 uM after 36 hrs by annexin V-FITC/propidium iodide staining-based flow cytometric method (reference value: 1.15%); assay type: functional
BXPC-3 [24] = assay: Induction of apoptosis in human BxPC3 cells assessed as viable cells at 0.2 uM after 36 hrs by annexin V-FITC/propidium iodide staining-based flow cytometric method (reference value: 91.8%); assay type: functional; conditions: BXPC-3, 36 h, read-out: Activity
BXPC-3 [25] = assay: Induction of apoptosis in human BxPC3 cells assessed as early apoptotic cells at 0.2 uM after 48 hrs by annexin V-FITC/propidium iodide staining-based flow cytometric method (reference value: 0.344%); assay type: functional
BXPC-3 [26] = assay: Induction of apoptosis in human BxPC3 cells assessed as late apoptotic cells at 0.2 uM after 48 hrs by annexin V-FITC/propidium iodide staining-based flow cytometric method (reference value: 6.73%); assay type: functional
BXPC-3 [27] = assay: Induction of apoptosis in human BxPC3 cells assessed as necrotic cells at 0.2 uM after 48 hrs by annexin V-FITC/propidium iodide staining-based flow cytometric method (reference value: 1.15%); assay type: functional
BXPC-3 [28] = assay: Induction of apoptosis in human BxPC3 cells assessed as viable cells at 0.2 uM after 48 hrs by annexin V-FITC/propidium iodide staining-based flow cytometric method (reference value: 91.8%); assay type: functional; conditions: BXPC-3, 48 h, read-out: Activity

Chain of Dihydroorotate dehydrogenase (quinone), mitochondrial (Q02127 whole entry): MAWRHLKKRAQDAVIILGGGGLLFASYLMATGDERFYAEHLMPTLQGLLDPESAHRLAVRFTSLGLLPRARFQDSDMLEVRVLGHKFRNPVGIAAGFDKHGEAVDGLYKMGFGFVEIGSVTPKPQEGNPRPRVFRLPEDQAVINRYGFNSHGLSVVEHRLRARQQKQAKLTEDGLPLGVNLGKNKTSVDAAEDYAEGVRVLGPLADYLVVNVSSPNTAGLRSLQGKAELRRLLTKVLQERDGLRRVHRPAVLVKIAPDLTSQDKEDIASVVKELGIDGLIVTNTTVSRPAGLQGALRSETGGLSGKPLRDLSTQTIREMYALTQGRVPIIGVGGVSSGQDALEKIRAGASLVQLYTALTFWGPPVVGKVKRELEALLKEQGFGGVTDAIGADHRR

Cc1c(-c2ccc(-c3ccccc3F)cc2)nc2ccc(F)cc2c1C(=O)O [BREQUINAR SODIUM]
IC50 [1]: 158 nM
IC50 [2]: 940 nM
IC50 at 72 h [3]: 34000 nM

Cc1ccc(/C=N/N(C)c2nc(-c3ccccc3Cl)cs2)c(C(=O)O)c1
IC50 [4]: 8 nM
IC50 [1]: 54 nM
IC50 [2]: 203 nM
IC50 at 72 h [3]: 17000 nM

O=C(O)c1ccccc1/C=N/Nc1nc(-c2ccccc2Cl)cs1
IC50 [4]: 29 nM
IC50 [1]: 713 nM
IC50 [2]: 3410 nM
IC50 at 72 h [3]: 39100 nM

O=C(O)c1ccccc1/C=N/N(CCO)c1nc(-c2ccccc2Cl)cs1
IC50 [4]: 425 nM
IC50 [1]: 763 nM
IC50 [2]: 4320 nM
IC50 at 72 h [3]: 48700 nM

O=C(O)c1ccccc1/C=N/Nc1nc(-c2ccccc2)cs1
IC50 [4]: 139 nM
IC50 [1]: 880 nM
IC50 [2]: 18900 nM
IC50 at 72 h [3]: 34200 nM

CCCN(/N=C/c1ccccc1C(=O)O)c1nc(-c2ccccc2Cl)cs1
IC50 [4]: 9 nM
IC50 [1]: 276 nM
IC50 [2]: 263 nM
IC50 at 72 h [3]: 10800 nM

Cc1ccc(/C=N/N(C)c2nc(-c3ccccc3)c(C)s2)c(C(=O)O)c1
IC50 [1]: 87 nM
IC50 [2]: 300 nM
IC50 at 72 h [3]: 41800 nM

CCc1sc(N/N=C/c2ccccc2C(=O)O)nc1-c1ccccc1Cl
IC50 [1]: 922 nM
IC50 [2]: 2790 nM
IC50 at 72 h [3]: 22400 nM

CCN(/N=C/c1ccccc1C(=O)O)c1nc(-c2ccccc2Cl)cs1
IC50 [4]: 59 nM
IC50 [1]: 299 nM
IC50 [2]: 199 nM
IC50 at 72 h [3]: 9980 nM

CC(C)N(/N=C/c1ccccc1C(=O)O)c1nc(-c2ccccc2Cl)cs1
IC50 [4]: 93 nM
IC50 [1]: 108 nM
IC50 [2]: 312 nM
IC50 at 72 h [3]: 18800 nM

CN(/N=C/c1ccccc1C(=O)O)c1nc(-c2cc(Cl)ccc2Cl)cs1
IC50 [1]: 301 nM
IC50 [2]: 1610 nM
IC50 at 72 h [3]: 61000 nM

CN(/N=C/c1ccc(F)cc1C(=O)O)c1nc(-c2ccccc2Cl)cs1
IC50 [4]: 2 nM
IC50 [1]: 23 nM
IC50 [2]: 88 nM
IC50 at 72 h [3]: 29700 nM
Activity (HCT-116 [5]): 3.11%
Activity (HCT-116 [6]): 3.11%
Activity (HCT-116 [7]): 1.78%
viability at 0.2 µM (HCT-116 [8]): 92%
Activity (HCT-116 [9]): 4.54%
Activity (HCT-116 [10]): 7.5%
Activity (HCT-116 [11]): 1.46%
viability at 0.2 µM (HCT-116 [12]): 86.5%
Activity (HCT-116 [13]): 4.59%
Activity (HCT-116 [14]): 25.4%
Activity (HCT-116 [15]): 1.67%
viability at 0.2 µM (HCT-116 [16]): 68.3%
Activity (BXPC-3 [17]): 1.01%
Activity (BXPC-3 [18]): 15.4%
Activity (BXPC-3 [19]): 3.23%
viability at 0.2 µM (BXPC-3 [20]): 80.4%
Activity (BXPC-3 [21]): 0.701%
Activity (BXPC-3 [22]): 52.6%
Activity (BXPC-3 [23]): 7.38%
viability at 0.2 µM (BXPC-3 [24]): 39.3%
Activity (BXPC-3 [25]): 0.392%
Activity (BXPC-3 [26]): 93.2%
Activity (BXPC-3 [27]): 1.59%
viability at 0.2 µM (BXPC-3 [28]): 4.8%

CN(/N=C/c1ccc(C(F)(F)F)cc1C(=O)O)c1nc(-c2ccccc2Cl)cs1
IC50 [1]: 2000 nM
IC50 [2]: 2980 nM
IC50 at 72 h [3]: 60900 nM

CN(/N=C/c1ccccc1C(=O)O)c1nc(-c2cccc(Cl)c2)cs1
IC50 [1]: 268 nM
IC50 [2]: 1590 nM
IC50 at 72 h [3]: 6570 nM

CCC(C)N(/N=C/c1ccccc1C(=O)O)c1nc(-c2ccccc2Cl)cs1 (centres undefined)
IC50 [4]: 24 nM
IC50 [1]: 244 nM
IC50 [2]: 536 nM
IC50 at 72 h [3]: 8300 nM

CCCC(C)N(/N=C/c1ccccc1C(=O)O)c1nc(-c2ccccc2Cl)c(C)s1 (centres undefined)
IC50 [1]: 181 nM
IC50 [2]: 801 nM
IC50 at 72 h [3]: 10100 nM

Cc1sc(N/N=C/c2ccccc2C(=O)O)nc1-c1ccccc1
IC50 [1]: 6420 nM
IC50 [2]: 19800 nM
IC50 at 72 h [3]: 21500 nM

CCCC(C)N(/N=C/c1ccccc1C(=O)O)c1nc(-c2ccccc2Cl)cs1 (centres undefined)
IC50 [1]: 588 nM
IC50 [2]: 988 nM
IC50 at 72 h [3]: 29100 nM

Cc1sc(N/N=C/c2ccccc2C(=O)O)nc1-c1ccccc1Cl
IC50 [1]: 375 nM
IC50 [2]: 2970 nM
IC50 at 72 h [3]: 44600 nM

CN(/N=C/c1ccccc1C(=O)O)c1nc(-c2ccccc2Cl)cs1
IC50 [4]: 8 nM
IC50 [1]: 31 nM
IC50 [2]: 80 nM
IC50 at 72 h [3]: 9580 nM
